Reference: PubChem BioAssay (NCI)
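Values below derive from 48-hour exposures of cells grown in 96-well plates, with endpoints linearly interpolated between the two concentrations bracketing the appropriate inhibition level. At the TGI there is no net growth.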

Key:
Test in all cases: NCI tumour cell line growth inhibition, 48 h
786-0 renal = system: 786-0 renal
A498 renal = system: A498 renal
A549 NSCLC = system: A549 NSCLC
ACHN renal = system: ACHN renal
BT-549 breast = system: BT-549 breast
CAKI-1 renal = system: CAKI-1 renal
CCRF-CEM leukemia = system: CCRF-CEM leukemia
COLO 205 colon = system: COLO 205 colon
DU-145 prostate = system: DU-145 prostate
EKVX NSCLC = system: EKVX NSCLC
HCC-2998 colon = system: HCC-2998 colon
HCT-116 colon = system: HCT-116 colon
HCT-15 colon = system: HCT-15 colon
HL-60(TB) leukemia = system: HL-60(TB) leukemia
HOP-62 NSCLC = system: HOP-62 NSCLC
HOP-92 NSCLC = system: HOP-92 NSCLC
HS 578T breast = system: HS 578T breast
HT29 colon = system: HT29 colon
IGROV1 ovarian = system: IGROV1 ovarian
K-562 leukemia = system: K-562 leukemia
KM12 colon = system: KM12 colon
LOX IMVI melanoma = system: LOX IMVI melanoma
M14 melanoma = system: M14 melanoma
MALME-3M melanoma = system: MALME-3M melanoma
MCF7 breast = system: MCF7 breast
MDA-MB-435 = system: MDA-MB-435
MDA-N = system: MDA-N
MOLT-4 leukemia = system: MOLT-4 leukemia
NCI-H226 lung = system: NCI-H226 lung
NCI-H23 lung = system: NCI-H23 lung
NCI-H460 lung = system: NCI-H460 lung
NCI-H522 lung = system: NCI-H522 lung
NCI/ADR-RES ovarian = system: NCI/ADR-RES ovarian
OVCAR-3 ovarian = system: OVCAR-3 ovarian
OVCAR-4 ovarian = system: OVCAR-4 ovarian
OVCAR-5 ovarian = system: OVCAR-5 ovarian
OVCAR-8 ovarian = system: OVCAR-8 ovarian
RXF 393 renal = system: RXF 393 renal
SF-268 CNS = system: SF-268 CNS
SF-295 CNS = system: SF-295 CNS
SF-539 CNS = system: SF-539 CNS
SK-MEL-28 melanoma = system: SK-MEL-28 melanoma
SK-MEL-5 melanoma = system: SK-MEL-5 melanoma
SK-OV-3 ovarian = system: SK-OV-3 ovarian
SN12C renal = system: SN12C renal
SNB-19 CNS = system: SNB-19 CNS
SNB-75 CNS = system: SNB-75 CNS
SR leukemia = system: SR leukemia
SW-620 colon = system: SW-620 colon
T-47D breast = system: T-47D breast
UACC-257 melanoma = system: UACC-257 melanoma
UACC-62 melanoma = system: UACC-62 melanoma
UO-31 renal = system: UO-31 renal
MDA-MB-231 breast = system: MDA-MB-231 breast
PC-3 prostate = system: PC-3 prostate
RPMI-8226 leukemia = system: RPMI-8226 leukemia
SK-MEL-2 melanoma = system: SK-MEL-2 melanoma
TK-10 renal = system: TK-10 renal
U251 CNS = system: U251 CNS

SMILES: COc1cc(/C=C2\N=C(c3ccccc3)N(c3cc4cc(Sc5ccccc5)ccc4[nH]3)C2=O)cc(OC)c1OC
- TGI (786-0 renal): 26 µM
- TGI (A498 renal): 42.9 µM
- TGI (A549 NSCLC): > 75 µM
- TGI (ACHN renal): > 75 µM
- TGI (BT-549 breast): 31.6 µM
- TGI (CAKI-1 renal): > 75 µM
- TGI (CCRF-CEM leukemia): 51.7 µM
- TGI (COLO 205 colon): 21.3 µM
- TGI (DU-145 prostate): 37.9 µM
- TGI (EKVX NSCLC): 67.5 µM
- TGI (HCC-2998 colon): 22.9 µM
- TGI (HCT-116 colon): 23.9 µM
- TGI (HCT-15 colon): 50.2 µM
- TGI (HL-60(TB) leukemia): 31.9 µM
- TGI (HOP-62 NSCLC): 41.2 µM
- TGI (HOP-92 NSCLC): 29.8 µM
- TGI (HS 578T breast): > 75 µM
- TGI (HT29 colon): 44.8 µM
- TGI (IGROV1 ovarian): > 75 µM
- TGI (K-562 leukemia): 17.9 µM
- TGI (KM12 colon): 56.8 µM
- TGI (LOX IMVI melanoma): 22.2 µM
- TGI (M14 melanoma): 22.8 µM
- TGI (MALME-3M melanoma): 11.1 µM
- TGI (MCF7 breast): 25.1 µM
- TGI (MDA-MB-435): 31 µM
- TGI (MDA-N): 15.9 µM
- TGI (MOLT-4 leukemia): 26.9 µM
- TGI (NCI-H226 lung): 28.9 µM
- TGI (NCI-H23 lung): > 75 µM
- TGI (NCI-H460 lung): 35.2 µM
- TGI (NCI-H522 lung): 12.9 µM
- TGI (NCI/ADR-RES ovarian): 59.1 µM
- TGI (OVCAR-3 ovarian): 60.1 µM
- TGI (OVCAR-4 ovarian): > 75 µM
- TGI (OVCAR-5 ovarian): > 75 µM
- TGI (OVCAR-8 ovarian): 41.5 µM
- TGI (RXF 393 renal): 26.8 µM
- TGI (SF-268 CNS): 18.2 µM
- TGI (SF-295 CNS): 73.2 µM
- TGI (SF-539 CNS): 24.6 µM
- TGI (SK-MEL-28 melanoma): 35.8 µM
- TGI (SK-MEL-5 melanoma): 20.4 µM
- TGI (SK-OV-3 ovarian): > 75 µM
- TGI (SN12C renal): 52.6 µM
- TGI (SNB-19 CNS): > 75 µM
- TGI (SNB-75 CNS): 56.2 µM
- TGI (SR leukemia): 12.3 µM
- TGI (SW-620 colon): 68 µM
- TGI (T-47D breast): 34.2 µM
- TGI (UACC-257 melanoma): 40.3 µM
- TGI (UACC-62 melanoma): 24.5 µM
- TGI (UO-31 renal): 48.9 µM

SMILES: C=C1CC(Cn2cc(C)c(=O)[nH]c2=O)(c2ccc(Cl)cc2)OC1=O (configuration not stated)
- TGI (786-0 renal): 2.99 µM
- TGI (A498 renal): 22.8 µM
- TGI (A549 NSCLC): 32.2 µM
- TGI (ACHN renal): 8 µM
- TGI (BT-549 breast): 2.86 µM
- TGI (CAKI-1 renal): 3.93 µM
- TGI (CCRF-CEM leukemia): 4.01 µM
- TGI (COLO 205 colon): 2.96 µM
- TGI (DU-145 prostate): 18.3 µM
- TGI (EKVX NSCLC): 18.7 µM
- TGI (HCC-2998 colon): 8.43 µM
- TGI (HCT-116 colon): 3.29 µM
- TGI (HCT-15 colon): 2.37 µM
- TGI (HL-60(TB) leukemia): 3.93 µM
- TGI (HOP-62 NSCLC): 33 µM
- TGI (HOP-92 NSCLC): 1.58 µM
- TGI (HS 578T breast): 25.5 µM
- TGI (HT29 colon): 3.64 µM
- TGI (IGROV1 ovarian): 3.41 µM
- TGI (K-562 leukemia): 21.1 µM
- TGI (KM12 colon): > 43 µM
- TGI (LOX IMVI melanoma): 3.2 µM
- TGI (M14 melanoma): 2.54 µM
- TGI (MALME-3M melanoma): 4.89 µM
- TGI (MDA-MB-231 breast): 9.82 µM
- TGI (MDA-MB-435): 15.1 µM
- TGI (MDA-N): 11.6 µM
- TGI (MOLT-4 leukemia): 3.87 µM
- TGI (NCI-H226 lung): 30.6 µM
- TGI (NCI-H23 lung): 10.4 µM
- TGI (NCI-H460 lung): 36.1 µM
- TGI (NCI-H522 lung): 1.35 µM
- TGI (NCI/ADR-RES ovarian): 17.9 µM
- TGI (OVCAR-5 ovarian): 29.4 µM
- TGI (OVCAR-8 ovarian): 15.4 µM
- TGI (PC-3 prostate): 12.5 µM
- TGI (RPMI-8226 leukemia): 1.95 µM
- TGI (SF-268 CNS): 42.1 µM
- TGI (SF-295 CNS): > 34 µM
- TGI (SF-539 CNS): 26 µM
- TGI (SK-MEL-2 melanoma): 5.48 µM
- TGI (SK-MEL-28 melanoma): 4.44 µM
- TGI (SK-MEL-5 melanoma): 6.43 µM
- TGI (SK-OV-3 ovarian): 28.1 µM
- TGI (SN12C renal): 21.2 µM
- TGI (SNB-19 CNS): > 55.5 µM
- TGI (SNB-75 CNS): 15.4 µM
- TGI (SR leukemia): 8.97 µM
- TGI (SW-620 colon): 3.38 µM
- TGI (T-47D breast): 5.19 µM
- TGI (TK-10 renal): 3.61 µM
- TGI (U251 CNS): 30 µM
- TGI (UACC-257 melanoma): 3.75 µM
- TGI (UACC-62 melanoma): 7.48 µM
- TGI (UO-31 renal): 25.9 µM

SMILES: CC(=O)c1c(SCCN2CCCCCC2)n(-c2ccccc2)c(=S)n(-c2ccccc2)c1=O
- TGI (786-0 renal): 3.36 µM
- TGI (A498 renal): 28.7 µM
- TGI (A549 NSCLC): 15.2 µM
- TGI (ACHN renal): 3.31 µM
- TGI (BT-549 breast): 32.7 µM
- TGI (CAKI-1 renal): 8.26 µM
- TGI (CCRF-CEM leukemia): 1.24 µM
- TGI (COLO 205 colon): 3.67 µM
- TGI (DU-145 prostate): 5.18 µM
- TGI (EKVX NSCLC): 40.4 µM
- TGI (HCC-2998 colon): 14.6 µM
- TGI (HCT-116 colon): 18.5 µM
- TGI (HCT-15 colon): 33.7 µM
- TGI (HOP-62 NSCLC): > 56.4 µM
- TGI (HOP-92 NSCLC): 20.1 µM
- TGI (HS 578T breast): 64.1 µM
- TGI (HT29 colon): 20.7 µM
- TGI (IGROV1 ovarian): 22.7 µM
- TGI (K-562 leukemia): 10.9 µM
- TGI (KM12 colon): > 54.1 µM
- TGI (LOX IMVI melanoma): 12.5 µM
- TGI (M14 melanoma): 4.9 µM
- TGI (MALME-3M melanoma): 3.51 µM
- TGI (MDA-MB-231 breast): 28.1 µM
- TGI (MDA-MB-435): 25.5 µM
- TGI (MDA-N): 20.3 µM
- TGI (NCI-H226 lung): 61.3 µM
- TGI (NCI-H23 lung): 38.2 µM
- TGI (NCI-H460 lung): > 54.4 µM
- TGI (NCI-H522 lung): 2.95 µM
- TGI (NCI/ADR-RES ovarian): > 100 µM
- TGI (OVCAR-3 ovarian): 12 µM
- TGI (OVCAR-4 ovarian): 79.3 µM
- TGI (OVCAR-5 ovarian): > 69 µM
- TGI (OVCAR-8 ovarian): 24.4 µM
- TGI (PC-3 prostate): 14.2 µM
- TGI (RXF 393 renal): 3.41 µM
- TGI (SF-268 CNS): 26.3 µM
- TGI (SF-295 CNS): > 100 µM
- TGI (SF-539 CNS): 13.1 µM
- TGI (SK-MEL-2 melanoma): 43.2 µM
- TGI (SK-MEL-28 melanoma): 23.4 µM
- TGI (SK-MEL-5 melanoma): 22.2 µM
- TGI (SK-OV-3 ovarian): > 100 µM
- TGI (SN12C renal): 19.5 µM
- TGI (SNB-19 CNS): > 100 µM
- TGI (SNB-75 CNS): 32.8 µM
- TGI (SR leukemia): 8.58 µM
- TGI (SW-620 colon): 4.96 µM
- TGI (T-47D breast): 7.36 µM
- TGI (TK-10 renal): 4.45 µM
- TGI (U251 CNS): 32.5 µM
- TGI (UACC-257 melanoma): 9.62 µM
- TGI (UACC-62 melanoma): 21 µM
